{
  "source": "patent US10449247B2",
  "about": "“Compositions and methods for enhancing immune response” (priority 2007, dated 2019)",
  "format_in_all_cases": "cell-based, Human",
  "key": {"THP-1 cells [1]": {"tested_on": "THP-1 cells", "test": "Vybrant phagocytosis assay (fluorescein-labeled E. coli particles), THP-1 cells", "protocol": "Human THP-1 monocytoid cells (acute monocytic leukemia) were obtained from American Type Tissue Collection (#TIB-202). Cells were cultured in RPMI-1640 medium supplemented with 2 mM L-glutamine, 10 mM HEPES, 1.0 mM sodium pyruvate, 10% fetal bovine serum and antibiotics. Primary peripheral blood monocytes (PBM) were isolated from mixed peripheral blood mononuclear cell preparations using the Miltenyi Biotec MACs magnetic separation system. PBM were cultured in the same medium as THP-1 cells, with the exception that 20% fetal bovine serum was used. Cells were seeded (1×10^5 cells/well, 96-well culture plates) 24 h prior to treatment with OxBC, PMA (25 ng/ml) and/or LPS (15 ng/ml) as described below. Cells incubated in an equivalent percentage (v/v) of DMSO alone served as controls.\nPhagocytosis in monocyte cultures was evaluated using a Vybrant phagocytosis assay kit (Invitrogen, #V6694) based upon the ingestion of fluorescein-labeled E. coli (strain K12) bacterial particles. Briefly, treated cells were incubated at 37° C. for 5 h with a 1000 suspension of fluorescent bioparticles in Hank's buffered salt solution. […] The trypan blue solution was removed and the number of ingested particles determined using a fluorescence microplate reader (480 nm excitation, 520 nm emission). […] After recovery, the cells were treated with LPS for an 24 h before phagocytosis was measured."}, "THP-1 cells [2]": {"tested_on": "THP-1 cells", "test": "FACS analysis of surface receptor expression in THP-1 cells (no LPS)", "protocol": "Human THP-1 monocytoid cells (acute monocytic leukemia) were obtained from American Type Tissue Collection (#TIB-202). Cells were cultured in RPMI-1640 medium supplemented with 2 mM L-glutamine, 10 mM HEPES, 1.0 mM sodium pyruvate, 10% fetal bovine serum and antibiotics. Cells were seeded (5×10^5 cells/well, 6-well culture plates) 24 h prior to treatment with OxBC and harvested for analysis according to three protocols: 1) Cells were treated with OxBC (2.5, 7.5 or 12.5 μM) for 24 h and than evaluated for surface receptor expression; 2) Cells were treated with OxBC (0.1, 0.5 or 1.0 μM) for 24 h, at which point fresh media lacking OxBC was supplied for 48 h prior to analysis, and 3) Cells were treated with OxBC (0.1, 0.5 or 1.0 μM) for 24 h, at which point fresh media lacking OxBC was supplied for 5 days. Treated cells were then stimulated with LPS (15 ng/ml) for 24 h prior to analysis. Cells incubated in an equivalent percentage (v/v) of DMSO alone served as controls. For studies in which LPS stimulation was not employed, PMA 25 ng/ml) was used as positive stimulator of monocytes differentiation.\nPhycoerythrin (PE)-labeled primary antibodies against human CD11b, CD14, CD16, CD36, CD51/CD61, HLA (broad isoforms), HLA-B7, CD86, CD40, CD40L and CD3 were obtained from AbCam. Receptor expression was evaluated using direct immunofluorescence labeling and flow cytometry analysis. Briefly, triplicate cell aliquots in cold buffer (PBS containing 10% FBS and 1% sodium azide) were incubated with primary antibody (10-20 μl) for 45 min at room temperature under low light conditions. Cells were washed three times and resuspended in 500 μl of buffer for analysis using a FacsAria cell sorter. Unlabeled cells and cells labeled with antibody alone served as controls."}, "THP-1 cells [3]": {"tested_on": "THP-1 cells", "test": "Cytokine release ELISA, naive THP-1 cells treated directly", "protocol": "Human THP-1 monocytoid cells (acute monocytic leukemia) were obtained from American Type Tissue Collection (#TIB-202). Cells were cultured in RPMI-1640 medium supplemented with 2 mM L-glutamine, 10 mM HEPES, 1.0 mM sodium pyruvate, 10% fetal bovine serum and antibiotics. Peripheral blood monocytes (PBM) and lymphocytes (PBL) were isolated from PBMC by positive and negative selection, respectively, using the Miltenyi Biotec MACs magnetic separation system. PBM were cultured in RPMI-1640 medium supplemented with 2 mM L-glutamine, 10 mM HEPES, 1.0 mM sodium pyruvate, 20% fetal bovine serum and antibiotics. PBL were seeded in the same medium with the exception that 10% FBS was used. Specific cell densities and experimental conditions are described below.\nCells were evaluated in both naïve challenge and LPS challenge models. For naive studies, cells were exposed directly to OxBC for varying time frames and cytokine expression evaluated in conditioned medium (CM) by ELISA. For LPS challenge, cells were first incubated with OxBC for the indicated time, at which point OxBC was removed and replaced with fresh medium lacking the compound. At different time points post-treatment, cells were then challenged with LPS (15 ng/ml) for 24 h prior to cytokine levels in CM being evaluated by ELISA. In a variation of the LPS challenge scenario, primary PBM were first challenged with LPS for 24 h. After this initial stimulation, LPS-treated cells were then exposed to OxBC for 24 h before CM was harvested for ELISA analysis.\nAnalysis of cytokine levels in CM was performed using Endogen Human ELISA kits (Pierce) according to manufacturer's instructions. CM was prepared by centrifugation to remove cellular debris and either used neat, diluted with complete medium or concentrated using Nanosep 3K centrifugal concentrators (Pall) to ensure that cytokine levels fell within the linear ranges of each assay. Where appropriate, samples were stored at −80° C. and thawed by gradual equilibration at room temperature prior to use. Briefly, 50 μl samples were added to each well of a microplate to which antibody specific to the cytokine of interest had been adsorbed and incubated at room temperature for 1-3 h. Plates were washed three times to remove nonspecifically bound material and incubated for an additional 1-3 h with biotinylated antibody specific to the cytokine of interest. After washing, plates were incubated for 30 min with steptavidin-horse radish peroxidase reagent followed by an additional washing cycle. Washed plates were incubated for 30 min with 3,3′,5,5′-tetramethylbenzidine (TMB) substrate, the reaction stopped and absorbance measured at 450 nm (550 nm reference). Reference curves were generated for each cytokine using the supplied recombinant standard.\nA primary proof-of-principle study was conducted in THP-1 cells that were untreated (mock) or treated for 24 h with OxBC, PMA (25 ng/ml) and vehicle (DMSO). […] Moreover, no change in MCP-1 and IL-8 expression was detected at lower concentrations of the compound. Both MCP-1 and IL-8 function as cytokines to recruit immune cells to sites of infection or injury. For example, IL-8 primarily recruits neutrophils within an inflammatory response and is also termed neutrophils recruitment factor (NRF), while MCP-1 primarily functions to recruit other monocytes. Expression of either cytokine by monocytes/macrophages is induced in response to detection of antigen or phagocytosis of an invading pathogen."}, "[4]": {"settings": "THP-1, 24 h, PMA 25 ng/ml, proof-of-principle"}},
  "data": [
    {"compound": "CCCCCCCCCCCCCC(=O)O[C@@H]1[C@@H](C)[C@@]2(O)[C@@H](C=C(CO)C[C@]3(O)C(=O)C(C)=C[C@@H]23)[C@@H]2C(C)(C)[C@]12OC(C)=O", "note": "[PMA, Phorbol myristate acetate]", "values": [
      {"measurement": "phagocytic activity", "setting": "THP-1 cells [1]; THP-1, PMA 24 h, 72 h recovery", "result": "large increase in phagocytic activity"},
      {"measurement": "increase in phagocytic activity relative to control cultures", "setting": "THP-1 cells [1]; naive THP-1, PMA 25 ng/ml 24 h", "result": "12.94±2.05", "unit": "fold"},
      {"measurement": "CD11b expression, fold change relative to vehicle controls", "setting": "THP-1 cells [2]; THP-1, 24 h, PMA 25 ng/ml", "result": "0.97 ± 0.02", "unit": "fold"},
      {"measurement": "CD14 expression, fold change relative to vehicle controls", "setting": "THP-1 cells [2]; THP-1, 24 h, PMA 25 ng/ml", "result": "1.91 ± 0.06", "unit": "fold"},
      {"measurement": "CD16 expression, fold change relative to vehicle controls", "setting": "THP-1 cells [2]; THP-1, 24 h, PMA 25 ng/ml", "result": "4.77 ± 0.31", "unit": "fold"},
      {"measurement": "CD36 expression, fold change relative to vehicle controls", "setting": "THP-1 cells [2]; THP-1, 24 h, PMA 25 ng/ml", "result": "1.03 ± 0.01", "unit": "fold"},
      {"measurement": "CD51 expression, fold change relative to vehicle controls", "setting": "THP-1 cells [2]; THP-1, 24 h, PMA 25 ng/ml", "result": "5.07 ± 0.29", "unit": "fold"},
      {"measurement": "B7-2 (CD86) expression, fold change relative to vehicle controls", "setting": "THP-1 cells [2]; THP-1, PMA 25 ng/ml", "result": "2.04 ± 0.29", "unit": "fold"},
      {"measurement": "CD11b receptor density (fluorescence intensity), fold change relative to vehicle controls", "setting": "THP-1 cells [2]; THP-1, PMA 25 ng/ml", "result": "1.97 ± 0.01", "unit": "fold"},
      {"measurement": "CD36 receptor density (fluorescence intensity), fold change relative to vehicle controls", "setting": "THP-1 cells [2]; THP-1, PMA 25 ng/ml", "result": "4.57 ± 0.03", "unit": "fold"},
      {"measurement": "CD40L expression, fold change relative to vehicle controls", "setting": "THP-1 cells [2]; THP-1, PMA 25 ng/ml", "result": "1.4 ± 0.10", "unit": "fold"},
      {"measurement": "CD40 counts, fold change relative to vehicle controls", "setting": "THP-1 cells [2]; THP-1, PMA 25 ng/ml", "result": "0.98 ± 0.01", "unit": "fold"},
      {"measurement": "CD40 intensity, fold change relative to vehicle controls", "setting": "THP-1 cells [2]; THP-1, PMA 25 ng/ml", "result": "1.31 ± 0.1", "unit": "fold"},
      {"measurement": "HLA (DQ/DR/DP) expression, fold change relative to vehicle controls", "setting": "THP-1 cells [2]; THP-1, PMA 25 ng/ml", "result": "1.05 ± 0.01", "unit": "fold"},
      {"measurement": "increase of densities of CD11b and CD36", "setting": "THP-1 cells [2]; THP-1, PMA 25 ng/ml", "result": "2 to 4", "unit": "fold"},
      {"measurement": "IFNγ", "setting": "THP-1 cells [3]; [4]", "result": "10.0 ± 1.3", "unit": "pg/mL"},
      {"measurement": "IL-1β", "setting": "THP-1 cells [3]; [4]", "result": "73.4 ± 2.8", "unit": "pg/mL"},
      {"measurement": "IL-8", "setting": "THP-1 cells [3]; [4]", "result": "637.2 ± 18.6", "unit": "pg/mL"},
      {"measurement": "IL-12", "setting": "THP-1 cells [3]; [4]", "result": "8.0 ± 6.5", "unit": "pg/mL"},
      {"measurement": "MCP-1", "setting": "THP-1 cells [3]; [4]", "result": "654.9 ± 60.2", "unit": "pg/mL"},
      {"measurement": "TNF", "setting": "THP-1 cells [3]; [4]", "result": "110.1 ± 1.7", "unit": "pg/mL"},
      {"measurement": "IFNγ", "setting": "THP-1 cells [3]; THP-1, PMA 25 ng/ml, Table 3", "result": 24.9, "unit": "pg/mL"},
      {"measurement": "IL-1β", "setting": "THP-1 cells [3]; THP-1, PMA 25 ng/ml, Table 3", "result": 62.5, "unit": "pg/mL"},
      {"measurement": "IL-6", "setting": "THP-1 cells [3]; THP-1, PMA 25 ng/ml, Table 3", "result": 20.3, "unit": "pg/mL"},
      {"measurement": "IL-8", "setting": "THP-1 cells [3]; THP-1, PMA 25 ng/ml, Table 3", "result": 712.4, "unit": "pg/mL"},
      {"measurement": "IL-12", "setting": "THP-1 cells [3]; THP-1, PMA 25 ng/ml, Table 3", "result": 20.9, "unit": "pg/mL"},
      {"measurement": "MCP-1", "setting": "THP-1 cells [3]; THP-1, PMA 25 ng/ml, Table 3", "result": 574.8, "unit": "pg/mL"},
      {"measurement": "TNF", "setting": "THP-1 cells [3]; THP-1, PMA 25 ng/ml, Table 3", "result": 108.5, "unit": "pg/mL"}
    ]}
  ]
}
